In the assay the test system is K86415-001-R-J1-PDC complex spheroids, viability. Kind of assay: Anticancer human tumor K86415-001-R-J1-PDC patient-derived lung adenocarcinoma cell line growth inhibition [RAS]. The conditions noted are these: for viability, T/C: stronger effect = lower value. An excerpt: RAS pathway inhibitors in Combinations in Complex Spheroids
A high-throughput screen of multi-cell type tumor spheroids was designed to identify active combinations of RAS pathway inhibitors and targeted small molecules. Complex spheroids include a stromal component modeled by human endothelial cells (HUVEC) and fibroblasts modeled by human mesenchymal stem cells (MSCs). The concentration ranges selected for each drug and investigational agent were based upon clinically achievable concentrations if the clinical Cmax of the agent was known.
Compounds. The drugs and investigational agents: abemaciclib (NSC768073), cobimetinib (NSC768068), divarasib (GDC6063, NSC841802), docetaxel (NSC628503), GDC-1971 (RLY-1971, NSC841576), gemcitabine (NSC613327), inavolisib (NSC800729), ipatasertib (NSC767898), KB-0742 (NSC834161), MRTX-1133 (NSC836407), osimertinib (NSC779217), RMC-4630 (NSC839698), RMC-6236 (NSC851965), RMC-6291 (NSC852671), Ro-3306 (NSC812927), sapanisertib (NSC764658), SN-38 (NSC673596), staurosporine (NSC755774), SY5609 (NSC837396), and tovorafenib (DAY101, NSC766906), were obtained from the National Cancer Institute (NCI) Developmental Therapeutics Program Chemical Repository. The FDA-approved anticancer drug set is available from the NCI Developmental Therapeutics Program. […] The stock solutions were prepared in dimethyl sulfoxide (DMSO, Sigma-Aldrich, St. Louis, MO, cat. D2650) at 800-fold the tested concentration and stored at -70 degrees C prior to their use. All drugs and investigational agents were tested over a range starting from a high concentration at or near the clinical Cmax and decreasing in half-log increments. If the clinical Cmax for an agent had not been determined, the highest concentration tested was 10 microM.
Cell Culture. All cells were maintained in an incubator at 37 degrees C and 5% CO2 with 95% humidity. The PDC lines were cultured according to standard operating procedures established by the NCI PDMR. All PDCs were thawed and cultured in Matrigel-coated flasks prepared with a working solution of 1X Ham's F-12 nutrient mix, without supplementation (Invitrogen, Waltham, MA, cat. 11765054), 100 U/mL penicillin-streptomycin (Invitrogen, cat. 15140122), and 2.5% Matrigel (Corning Inc., Corning, NY, cat. 354248) for the first three passages. The 362531-283-R-J2-PDC and 782815-120-R-J1-PDC lines were cultured in 6C/Colon 1B media, which includes advanced DMEM/F-12 (Thermo Fisher Scientific, cat. 12634028), 10 mM HEPES (Thermo Fisher Scientific, cat. 15630080), 1X GlutaMAX supplement (Thermo Fisher Scientific, cat. 35050061), 0.1 mg/mL primocin (InvivoGen, San Diego, CA, cat. ant-pm-2), 10% defined fetal bovine serum, heat inactivated (HyClone Laboratories Inc., Logan, UT, cat. SH30070.03HI), 50% L-WRN conditioned media (ATCC, cat. CRL-3276), 1.25 mM N-Acetyl-L-cysteine (Sigma-Aldrich, cat. A9165), 10 mM nicotinamide (Sigma-Aldrich, cat. N0636), 1X B-27 supplement (Thermo Fisher Scientific, cat. 17504044), 1X N-2 supplement (Thermo Fisher Scientific, cat. 17502048), 50 ng/mL human EGF (Thermo Fisher Scientific, cat. PHG0311), and 10 microM Y-27632 dihydrochloride (Tocris Bioscience, cat. 1254). The K12877-001-R-J1-PDC line was cultured in 6I media, which includes all 6C/Colon 1B media plus 10 ng/mL human FGF-10 (PeproTech, cat. 100-26), 1 ng/mL human FGF-2 (PeproTech, cat. 100-18B), 1 µM prostaglandin E2 (Tocris Bioscience, cat. 2296), […] hydrocortisone (Sigma-Aldrich, cat. H4001), and […] bovine insulin (Sigma-Aldrich, cat. I6634). The K86415-001-R-J1-PDC line was cultured in 6D media, which includes all 6C/Colon 1B media components minus the L-WRN conditioned media. The 485176-168-R4-J1-PDC was cultured in PANC media, which includes all 6C/Colon 1B media plus 100 ng/mL human FGF-10 (PeproTech, cat. 100-26), 500 nM SB-431542 (Selleckchem, cat. S1067), and 10 nM gastrin (Tocris Bioscience, cat. 3006). […]

These results are taken from PubChem BioAssay AID2060893 (Molecular Pharmacology Branch, DTP, NCI, 2025).

Values joined by “and” are separate entries in the source; they are usually repeats but may differ in a detail not shown here. Equal values may be shown once.
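Note: spheroids exposed to agents for seven days before readout.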

In the case of `O=C(c1ccc(F)c(F)c1Nc1ccc(I)cc1F)N1CC(O)([C@@H]2CCCCN2)C1` + C=CC(=O)N1CCN(c2nc(OCC3CCCN3C)nc3c(F)c(-c4nc(N)cc(C)c4C(F)(F)F)c(Cl)cc23)C(C)C1, the IC50 runs as follows: (curve of first compound, second compound 0.00316 µM) less than 3.16 nM; (curve of first compound, second compound 0.01 µM) less than 3.16 nM; (curve of first compound, second compound 0.0316 µM) less than 3.16 nM; (curve of first compound, second compound 0.1 µM) less than 3.16 nM; (curve of first compound, second compound 0.316 µM) less than 3.16 nM; (curve of first compound, second compound 1 µM) less than 3.16 nM. In addition, the viability, T/C (second compound 0.00316 µM, first compound 0.00316 µM) was 18.7%; the viability, T/C (second compound 0.00316 µM, first compound 0.01 µM) was 15.5%; the viability, T/C (second compound 0.00316 µM, first compound 0.0316 µM) was 11.7%; the viability, T/C (second compound 0.00316 µM, first compound 0.1 µM) is 11.2%; the viability, T/C (second compound 0.00316 µM, first compound 0.316 µM) was 6.3%; the viability, T/C (second compound 0.00316 µM, first compound 1 µM) is 3.59%. Further, the viability, T/C (second compound 0.01 µM, first compound 0.00316 µM) was 10.7%; the viability, T/C (second compound 0.01 µM, first compound 0.01 µM) is 9.82%; the viability, T/C (second compound 0.01 µM, first compound 0.0316 µM) was 7.43%; the viability, T/C (second compound 0.01 µM, first compound 0.1 µM) was 7.21%; the viability, T/C (second compound 0.01 µM, first compound 0.316 µM) was 5.24%; the viability, T/C (second compound 0.01 µM, first compound 1 µM) was 2.8%. For the same compound, the viability, T/C is 10.5% (second compound 0.0316 µM, first compound 0.00316 µM); 8.28% (second compound 0.0316 µM, first compound 0.01 µM); 7.31% (second compound 0.0316 µM, first compound 0.0316 µM); 5.71% (second compound 0.0316 µM, first compound 0.1 µM); 6.7% (second compound 0.0316 µM, first compound 0.316 µM); 2.39% (second compound 0.0316 µM, first compound 1 µM). Moreover, the viability, T/C (second compound 0.1 µM, first compound 0.00316 µM) was 9.48%; the viability, T/C (second compound 0.1 µM, first compound 0.01 µM) was 8.63%; the viability, T/C (second compound 0.1 µM, first compound 0.0316 µM) is 6.77%; the viability, T/C (second compound 0.1 µM, first compound 0.1 µM) is 5.29%; the viability, T/C (second compound 0.1 µM, first compound 0.316 µM) was 3.4%; the viability, T/C (second compound 0.1 µM, first compound 1 µM) is 2.5%. Besides, the viability, T/C was 9.04% (second compound 0.316 µM, first compound 0.00316 µM); 7.51% (second compound 0.316 µM, first compound 0.01 µM); 6.81% (second compound 0.316 µM, first compound 0.0316 µM); 5.26% (second compound 0.316 µM, first compound 0.1 µM); 5.12% (second compound 0.316 µM, first compound 0.316 µM); 1.9% (second compound 0.316 µM, first compound 1 µM). The viability, T/C is 10% (second compound 1 µM, first compound 0.00316 µM); 8.81% (second compound 1 µM, first compound 0.01 µM); 8.35% (second compound 1 µM, first compound 0.0316 µM); 5.6% (second compound 1 µM, first compound 0.1 µM); 4.91% (second compound 1 µM, first compound 0.316 µM); 2.61% (second compound 1 µM, first compound 1 µM).

On to `CC1(C)CCC(Nc2ncc(C(F)(F)F)c(-c3c[nH]c4c(P(C)(C)=O)c(C#N)ccc34)n2)CN1` (stereo not given), for which the viability, T/C reads like this: (compound 0.000949 µM) 110% and 123% (2×) and 109%; (compound 0.003 µM) 120% [middle of 4 runs]; (compound 0.00949 µM) 75.7% [middle of 4 runs]; (compound 0.03 µM) 58.1% [middle of 4 runs]; (compound 0.0949 µM) 60.8% [middle of 4 runs]; (compound 0.3 µM) 60.1% [middle of 4 runs]. The IC50 (curve of compound) is greater than 300 nM.

For the compound `CC1(O)CCCC1n1c(=O)c(C(F)F)cc2cnc(NC3CCN(S(C)(=O)=O)CC3)nc21` (stereo not given), the viability, T/C reads like this: (compound 0.0316 µM) 83.8% and 84.3% and 80.5% (2×); (compound 0.1 µM) 87.1% [middle of 4 runs]; (compound 0.316 µM) 65.7% [middle of 4 runs]; (compound 1 µM) 72% (2×) and 75% and 80.8%; (compound 10 µM) 10.4% [middle of 4 runs]. In addition, the 50% inhibitory concentration (IC50) (curve of compound) is 5.04 µM [middle of 4 runs].

Broadly, the IC50 is the concentration at which inhibition is half-maximal. Usually viability, T/C stands for the result in the treated group divided by that in the control group, in per cent.
